Assay results taken from ChEMBL document CHEMBL4024706 (Eur J Med Chem, 2017).

What was measured:
[1] = biological target: Mitogen-activated protein kinase kinase kinase kinase 5 (Homo sapiens) (UniProt Q9Y4K4); experiment: Inhibition of wild-type human partial length MAP4K5 (M1 to P297 residues) expressed in bacterial expression system assessed as residual activity at 1 uM by Kinomescan method relative to control
[2] = biological target: Transient receptor potential cation channel subfamily M member 6 (Homo sapiens) (UniProt Q9BX84); experiment: Inhibition of wild-type human partial length TRPM6 (Q1723 to I1998 residues) expressed in mammalian expression system assessed as residual activity at 1 uM by Kinomescan method relative to control
Homo sapiens = species: Homo sapiens; experiment: Inhibition of human partial length FLT3 ITD mutant expressed in bacterial expression system assessed as residual activity at 1 uM by Kinomescan method relative to control
[3] = biological target: SNF-related serine/threonine-protein kinase (Homo sapiens) (UniProt Q9NRH2); experiment: Inhibition of wild-type human partial length SNRK (M1 to E339 residues) expressed in mammalian expression system assessed as residual activity at 1 uM by Kinomescan method relative to control
Sequence of SNF-related serine/threonine-protein kinase (Homo sapiens) (Q9NRH2 whole entry, the tested form may be a part): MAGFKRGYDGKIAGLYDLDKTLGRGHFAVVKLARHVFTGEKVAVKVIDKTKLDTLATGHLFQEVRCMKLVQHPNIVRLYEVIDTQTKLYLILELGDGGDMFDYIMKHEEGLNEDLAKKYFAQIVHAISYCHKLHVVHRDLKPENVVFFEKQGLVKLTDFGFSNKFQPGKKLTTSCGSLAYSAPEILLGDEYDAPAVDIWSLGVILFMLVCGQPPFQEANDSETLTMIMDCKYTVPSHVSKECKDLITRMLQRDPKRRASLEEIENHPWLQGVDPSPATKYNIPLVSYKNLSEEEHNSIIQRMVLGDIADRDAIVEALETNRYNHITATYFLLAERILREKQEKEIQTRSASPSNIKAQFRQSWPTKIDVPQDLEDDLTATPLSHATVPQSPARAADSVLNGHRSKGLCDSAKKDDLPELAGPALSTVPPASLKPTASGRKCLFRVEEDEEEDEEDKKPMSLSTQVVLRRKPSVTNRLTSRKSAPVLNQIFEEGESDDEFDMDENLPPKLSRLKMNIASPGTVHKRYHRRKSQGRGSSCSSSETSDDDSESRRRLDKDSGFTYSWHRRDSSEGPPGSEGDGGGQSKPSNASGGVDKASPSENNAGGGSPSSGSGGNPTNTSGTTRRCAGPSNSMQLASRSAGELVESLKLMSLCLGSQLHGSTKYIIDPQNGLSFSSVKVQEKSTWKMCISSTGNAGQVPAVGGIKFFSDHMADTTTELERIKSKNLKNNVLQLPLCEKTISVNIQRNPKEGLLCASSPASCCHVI

[4] = test system: Serine/threonine-protein kinase B-raf (Homo sapiens), P15056 [V600E]; experiment: Inhibition of human partial length BRAF V600E mutant (S429 to E741 residues) expressed in mammalian expression system assessed as residual activity at 1 uM by Kinomescan method relative to control
[5] = biological target: Rhodopsin kinase GRK7 (Homo sapiens) (UniProt Q8WTQ7); experiment: Inhibition of wild-type human full length GRK7 (M1 to L553 residues) expressed in mammalian expression system assessed as residual activity at 1 uM by Kinomescan method relative to control
[6] = biological target: NT-3 growth factor receptor (Homo sapiens) (UniProt Q16288); experiment: Inhibition of wild-type human partial length TRKC (Q531 to G825 residues) expressed in mammalian expression system assessed as residual activity at 1 uM by Kinomescan method relative to control
Sequence of NT-3 growth factor receptor (Homo sapiens) (Q16288 32-839 limits assumed): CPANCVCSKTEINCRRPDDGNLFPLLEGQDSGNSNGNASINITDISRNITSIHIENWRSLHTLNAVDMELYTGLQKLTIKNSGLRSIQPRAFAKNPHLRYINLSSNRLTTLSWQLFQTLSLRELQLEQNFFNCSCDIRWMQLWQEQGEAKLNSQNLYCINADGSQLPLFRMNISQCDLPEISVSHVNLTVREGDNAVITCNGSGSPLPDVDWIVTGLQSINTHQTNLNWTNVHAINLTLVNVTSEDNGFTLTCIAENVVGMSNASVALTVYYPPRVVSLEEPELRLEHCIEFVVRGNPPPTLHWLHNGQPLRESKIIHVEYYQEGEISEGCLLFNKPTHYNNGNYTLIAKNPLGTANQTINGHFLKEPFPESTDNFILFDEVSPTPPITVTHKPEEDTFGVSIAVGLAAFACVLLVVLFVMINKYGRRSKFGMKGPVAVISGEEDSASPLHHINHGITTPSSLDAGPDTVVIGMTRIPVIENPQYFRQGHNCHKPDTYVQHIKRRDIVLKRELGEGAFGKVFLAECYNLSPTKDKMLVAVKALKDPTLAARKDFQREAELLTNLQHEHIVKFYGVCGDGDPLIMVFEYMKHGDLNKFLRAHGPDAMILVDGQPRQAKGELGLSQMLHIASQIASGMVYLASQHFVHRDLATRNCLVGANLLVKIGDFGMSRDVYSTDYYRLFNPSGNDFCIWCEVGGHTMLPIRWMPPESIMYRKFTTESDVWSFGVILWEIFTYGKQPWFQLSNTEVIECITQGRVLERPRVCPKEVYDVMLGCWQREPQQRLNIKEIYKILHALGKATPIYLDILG

[7] = biological target: Serine/threonine-protein kinase RIO3 (Homo sapiens) (UniProt O14730); experiment: Inhibition of wild-type human full length RIOK3 (M1 to E519 residues) expressed in bacterial expression system assessed as residual activity at 1 uM by Kinomescan method relative to control
Sequence of Serine/threonine-protein kinase RIO3 (Homo sapiens) (O14730 whole entry, the tested form may be a part): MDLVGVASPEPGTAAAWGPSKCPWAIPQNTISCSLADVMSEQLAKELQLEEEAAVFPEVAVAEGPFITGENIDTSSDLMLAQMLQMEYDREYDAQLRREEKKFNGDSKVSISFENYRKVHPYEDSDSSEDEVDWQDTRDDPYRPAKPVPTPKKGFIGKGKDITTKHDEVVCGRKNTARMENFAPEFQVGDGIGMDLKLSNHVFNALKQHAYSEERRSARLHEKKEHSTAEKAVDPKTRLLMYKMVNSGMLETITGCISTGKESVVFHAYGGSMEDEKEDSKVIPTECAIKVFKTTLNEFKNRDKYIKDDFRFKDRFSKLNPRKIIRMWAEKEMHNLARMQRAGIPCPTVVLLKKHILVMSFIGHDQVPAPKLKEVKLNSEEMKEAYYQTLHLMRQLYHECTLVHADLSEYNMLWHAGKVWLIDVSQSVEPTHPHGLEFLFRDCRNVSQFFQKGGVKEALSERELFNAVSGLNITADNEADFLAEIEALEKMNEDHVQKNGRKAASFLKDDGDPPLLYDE

[8] = biological target: Atypical kinase COQ8A, mitochondrial (Homo sapiens) (UniProt Q8NI60); experiment: Inhibition of wild-type human […] ADCK3 (M280 to Q647 residues) expressed in bacterial expression system assessed as residual activity at 1 uM by Kinomescan method relative to control
[9] = test system: Hepatocyte growth factor receptor (Homo sapiens), P08581 [Y1235D]; experiment: Inhibition of human partial length MET Y1235D mutant (D1010 to S1367 residues) expressed in bacterial expression system assessed as residual activity at 1 uM by Kinomescan method relative to control
[10] = biological target: Tyrosine-protein kinase CSK (Homo sapiens) (UniProt P41240); experiment: Inhibition of wild-type human full length CSK (M1 to L450 residues) expressed in bacterial expression system assessed as residual activity at 1 uM by Kinomescan method relative to control
Sequence of Tyrosine-protein kinase CSK (Homo sapiens) (P41240 2-450 limits assumed): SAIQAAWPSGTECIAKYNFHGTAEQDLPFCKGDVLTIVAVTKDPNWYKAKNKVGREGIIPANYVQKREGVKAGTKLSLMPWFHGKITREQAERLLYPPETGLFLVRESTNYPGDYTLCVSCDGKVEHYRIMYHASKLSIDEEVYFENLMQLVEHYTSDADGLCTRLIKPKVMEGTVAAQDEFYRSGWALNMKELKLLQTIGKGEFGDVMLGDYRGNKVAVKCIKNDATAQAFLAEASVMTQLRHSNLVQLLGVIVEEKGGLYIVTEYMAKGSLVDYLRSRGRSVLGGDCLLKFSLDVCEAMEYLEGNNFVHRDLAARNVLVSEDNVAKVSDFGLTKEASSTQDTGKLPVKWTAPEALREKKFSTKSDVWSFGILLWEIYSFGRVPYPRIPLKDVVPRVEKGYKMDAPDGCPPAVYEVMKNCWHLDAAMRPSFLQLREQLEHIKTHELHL

[11] = test system: Receptor-type tyrosine-protein kinase FLT3 (Homo sapiens), P36888 [D835V]; experiment: Inhibition of human partial length FLT3 D835V mutant (V592 to Y969 residues) expressed in bacterial expression system assessed as residual activity at 1 uM by Kinomescan method relative to control
[12] = biological target: Aurora kinase A (Homo sapiens) (UniProt O14965); experiment: Inhibition of wild-type human partial length AURKA (E122 to K401 residues) expressed in mammalian expression system assessed as residual activity at 1 uM by Kinomescan method relative to control
[13] = biological target: Cyclin-dependent kinase 15 (Homo sapiens) (UniProt Q96Q40); experiment: Inhibition of wild-type human full length PFTAIRE2 (M1 to W384 residues) expressed in bacterial expression system assessed as residual activity at 1 uM by Kinomescan method relative to control
[14] = biological target: Serine/threonine-protein kinase Nek2 (Homo sapiens) (UniProt P51955); experiment: Inhibition of wild-type human partial length NEK2 (M1 to K309 residues) expressed in bacterial expression system assessed as residual activity at 1 uM by Kinomescan method relative to control
Sequence of Serine/threonine-protein kinase Nek2 (Homo sapiens) (P51955 whole entry, the tested form may be a part): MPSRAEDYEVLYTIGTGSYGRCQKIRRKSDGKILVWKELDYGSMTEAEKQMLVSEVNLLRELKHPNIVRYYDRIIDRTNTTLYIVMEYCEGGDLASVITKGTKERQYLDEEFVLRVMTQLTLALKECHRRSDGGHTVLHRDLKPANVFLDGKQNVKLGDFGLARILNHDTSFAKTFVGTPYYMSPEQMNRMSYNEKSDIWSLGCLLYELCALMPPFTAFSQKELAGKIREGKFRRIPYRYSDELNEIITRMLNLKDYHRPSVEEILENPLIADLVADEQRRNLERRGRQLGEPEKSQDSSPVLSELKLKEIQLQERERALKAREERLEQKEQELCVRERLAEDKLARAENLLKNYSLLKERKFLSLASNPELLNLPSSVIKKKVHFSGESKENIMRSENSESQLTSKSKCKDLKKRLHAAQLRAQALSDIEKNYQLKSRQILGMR

[15] = biological target: MAP/microtubule affinity-regulating kinase 4 (Homo sapiens) (UniProt Q96L34); experiment: Inhibition of wild-type human partial length MARK4 (K29 to G340 residues) expressed in bacterial expression system assessed as residual activity at 1 uM by Kinomescan method relative to control
[16] = biological target: Fibroblast growth factor receptor 3 (Homo sapiens) (UniProt P22607); experiment: Inhibition of wild-type human partial length FGFR3 (R442 to S771 residues) expressed in bacterial expression system assessed as residual activity at 1 uM by Kinomescan method relative to control
[17] = biological target: Serine/threonine-protein kinase 32A (Homo sapiens) (UniProt Q8WU08); experiment: Inhibition of wild-type human full length YANK1 (M1 to L396 residues) expressed in mammalian expression system assessed as residual activity at 1 uM by Kinomescan method relative to control
[18] = biological target: Ephrin type-B receptor 2 (Homo sapiens) (UniProt P29323); experiment: Inhibition of wild-type human partial length EPHB2 (I597 to L902 residues) expressed in bacterial expression system assessed as residual activity at 1 uM by Kinomescan method relative to control
[19] = test system: Mast/stem cell growth factor receptor Kit (Homo sapiens), P10721 [L576P]; experiment: Inhibition of human partial length KIT L576P mutant (Y545 to D952 residues) expressed in bacterial expression system assessed as residual activity at 1 uM by Kinomescan method relative to control
Sequence of Mast/stem cell growth factor receptor Kit (Homo sapiens), P10721 [L576P] (P10721 whole entry L576P, the tested form may be a part): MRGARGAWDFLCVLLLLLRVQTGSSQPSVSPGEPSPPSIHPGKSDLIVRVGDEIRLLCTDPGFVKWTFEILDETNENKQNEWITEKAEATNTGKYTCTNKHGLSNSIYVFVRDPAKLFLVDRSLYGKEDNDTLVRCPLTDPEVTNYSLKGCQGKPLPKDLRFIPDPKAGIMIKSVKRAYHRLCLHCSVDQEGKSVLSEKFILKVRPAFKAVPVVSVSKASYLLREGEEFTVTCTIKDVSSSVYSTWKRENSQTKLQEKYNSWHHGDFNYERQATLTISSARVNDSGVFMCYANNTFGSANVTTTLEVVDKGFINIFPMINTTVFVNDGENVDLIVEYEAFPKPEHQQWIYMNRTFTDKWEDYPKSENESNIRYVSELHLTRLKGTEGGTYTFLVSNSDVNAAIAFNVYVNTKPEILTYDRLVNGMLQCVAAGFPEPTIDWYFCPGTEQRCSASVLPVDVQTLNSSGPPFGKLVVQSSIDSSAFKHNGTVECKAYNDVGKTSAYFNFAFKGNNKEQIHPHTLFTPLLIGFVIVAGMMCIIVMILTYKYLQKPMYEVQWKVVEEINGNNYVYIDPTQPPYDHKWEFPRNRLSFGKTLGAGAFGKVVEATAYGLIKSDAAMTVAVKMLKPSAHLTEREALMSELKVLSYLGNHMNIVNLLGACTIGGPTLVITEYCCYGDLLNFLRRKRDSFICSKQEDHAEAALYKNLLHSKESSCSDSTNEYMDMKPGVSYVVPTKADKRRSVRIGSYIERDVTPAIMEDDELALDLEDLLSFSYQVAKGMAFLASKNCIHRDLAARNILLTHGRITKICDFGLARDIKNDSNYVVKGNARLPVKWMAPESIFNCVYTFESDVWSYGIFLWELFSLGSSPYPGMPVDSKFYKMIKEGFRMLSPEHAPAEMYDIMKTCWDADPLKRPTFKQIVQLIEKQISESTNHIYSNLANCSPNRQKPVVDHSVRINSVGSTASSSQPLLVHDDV

[20] = biological target: Calcium/calmodulin-dependent protein kinase type II subunit alpha (Homo sapiens) (UniProt Q9UQM7); experiment: Inhibition of wild-type human partial length CAMK2A (M1 to K328 residues) expressed in bacterial expression system assessed as residual activity at 1 uM by Kinomescan method relative to control
[21] = biological target: Vascular endothelial growth factor receptor 1 (Homo sapiens) (UniProt P17948); experiment: Inhibition of wild-type human partial length FLT1 (R781 to F1239 residues) expressed in bacterial expression system assessed as residual activity at 1 uM by Kinomescan method relative to control
[22] = biological target: Phosphatidylinositol 4,5-bisphosphate 3-kinase catalytic subunit gamma isoform (Homo sapiens) (UniProt P48736); experiment: Inhibition of wild-type human partial length PIK3CG (S144 to A1102 residues) expressed in mammalian expression system assessed as residual activity at 1 uM by Kinomescan method relative to control
Sequence of Phosphatidylinositol 4,5-bisphosphate 3-kinase catalytic subunit gamma isoform (Homo sapiens) (P48736 whole entry, looked up, the tested form may be a part, canonical isoform): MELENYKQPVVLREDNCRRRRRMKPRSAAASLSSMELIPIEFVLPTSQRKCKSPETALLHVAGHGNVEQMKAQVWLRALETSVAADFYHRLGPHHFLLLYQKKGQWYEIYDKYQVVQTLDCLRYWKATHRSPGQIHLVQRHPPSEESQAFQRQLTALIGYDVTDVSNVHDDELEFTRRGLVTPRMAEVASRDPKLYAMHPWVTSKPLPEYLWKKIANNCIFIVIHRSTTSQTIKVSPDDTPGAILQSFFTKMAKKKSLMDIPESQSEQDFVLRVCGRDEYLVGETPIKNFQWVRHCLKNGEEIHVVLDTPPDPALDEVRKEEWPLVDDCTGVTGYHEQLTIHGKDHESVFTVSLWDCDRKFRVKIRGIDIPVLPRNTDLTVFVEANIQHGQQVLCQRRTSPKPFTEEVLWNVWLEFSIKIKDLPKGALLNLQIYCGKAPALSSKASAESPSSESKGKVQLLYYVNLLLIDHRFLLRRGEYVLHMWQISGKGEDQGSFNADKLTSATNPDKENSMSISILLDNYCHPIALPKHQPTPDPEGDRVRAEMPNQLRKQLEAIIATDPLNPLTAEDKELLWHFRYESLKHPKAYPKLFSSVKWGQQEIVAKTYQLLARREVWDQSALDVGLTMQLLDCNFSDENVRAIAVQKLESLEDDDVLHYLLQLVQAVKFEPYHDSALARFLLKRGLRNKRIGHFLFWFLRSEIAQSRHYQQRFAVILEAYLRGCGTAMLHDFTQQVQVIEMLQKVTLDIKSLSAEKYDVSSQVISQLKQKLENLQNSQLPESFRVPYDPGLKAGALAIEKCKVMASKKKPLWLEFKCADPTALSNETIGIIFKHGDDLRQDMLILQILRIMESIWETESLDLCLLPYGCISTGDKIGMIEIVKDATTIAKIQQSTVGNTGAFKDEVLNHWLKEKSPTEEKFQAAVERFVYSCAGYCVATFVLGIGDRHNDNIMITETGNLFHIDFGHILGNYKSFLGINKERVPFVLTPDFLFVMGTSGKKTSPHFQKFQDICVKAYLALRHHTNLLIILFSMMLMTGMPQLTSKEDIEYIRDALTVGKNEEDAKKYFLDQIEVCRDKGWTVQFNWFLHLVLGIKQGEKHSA

[23] = biological target: Myosin-IIIb (Homo sapiens) (UniProt Q8WXR4); experiment: Inhibition of wild-type human partial length MYO3B (M1 to D357 residues) expressed in bacterial expression system assessed as residual activity at 1 uM by Kinomescan method relative to control
[24] = test system: Epidermal growth factor receptor (Homo sapiens), P00533 [L861Q]; experiment: Inhibition of human partial length EGFR L861Q mutant (R669 to V1011 residues) expressed in bacterial expression system assessed as residual activity at 1 uM by Kinomescan method relative to control

**Q.** With C=CC(=O)Nc1cc(Nc2cc(-c3cccc(NC(=O)c4ccc(C(C)(C)C)cc4)c3C)cn(C)c2=O)ccc1C(=O)N1CCOCC1 as the molecule, how does the Activity [1] read?
**A.** 100%

**Q.** And the Activity [2]?
**A.** 99%

**Q.** What about the Activity (Homo sapiens) of the same molecule?
**A.** 90%

**Q.** And the Activity [3]?
**A.** 80%

**Q.** And the Activity [4]?
**A.** 100%

**Q.** What about the Activity [5] of the same molecule?
**A.** 94%

**Q.** And the Activity [6]?
**A.** 76%

**Q.** And the Activity [7]?
**A.** 78%

**Q.** And the Activity [8]?
**A.** 79%

**Q.** And the Activity [9]?
**A.** 89%

**Q.** What about the Activity [10] of the same molecule?
**A.** 100%

**Q.** What about the Activity [11] of the same molecule?
**A.** 70%

**Q.** And the Activity [12]?
**A.** 61%

**Q.** And the Activity [13]?
**A.** 97%

**Q.** And the Activity [14]?
**A.** 99%

**Q.** What about the Activity [15] of the same molecule?
**A.** 91%

**Q.** And the Activity [16]?
**A.** 89%

**Q.** What about the Activity [17] of the same molecule?
**A.** 83%

**Q.** What about the Activity [18] of the same molecule?
**A.** 100%

**Q.** And the Activity [19]?
**A.** 97%

**Q.** And the Activity [20]?
**A.** 100%

**Q.** What about the Activity [21] of the same molecule?
**A.** 97%

**Q.** And the Activity [22]?
**A.** 100%

**Q.** What about the Activity [23] of the same molecule?
**A.** 86%

**Q.** What about the Activity [24] of the same molecule?
**A.** 100%
